Measurements: patent US8592383B2, “Cycloalkyl-fused tetrahydroquinolines as CRTH2 receptor modulators” (Merck Sharp & Dohme Corp., priority 2011, dated 2013)

Target: T1, hCRTH2 (Homo sapiens, UniProt Q9Y5Y4)
T1 sequence (Q9Y5Y4 1-395): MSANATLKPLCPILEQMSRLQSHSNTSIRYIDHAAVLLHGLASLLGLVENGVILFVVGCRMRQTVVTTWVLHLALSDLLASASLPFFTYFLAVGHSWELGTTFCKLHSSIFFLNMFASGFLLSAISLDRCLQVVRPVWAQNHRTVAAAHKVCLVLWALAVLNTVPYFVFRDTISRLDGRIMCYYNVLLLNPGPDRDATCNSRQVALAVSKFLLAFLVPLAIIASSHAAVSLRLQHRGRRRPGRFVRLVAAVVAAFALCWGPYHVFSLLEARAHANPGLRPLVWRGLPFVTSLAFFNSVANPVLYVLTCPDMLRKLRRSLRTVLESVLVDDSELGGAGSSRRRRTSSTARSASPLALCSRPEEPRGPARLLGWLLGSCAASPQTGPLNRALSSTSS
Assay: biochemical

[1] = Ki, Radioligand Binding Assay A, 3.0 nM [3H]PGD2, HEK-hCRTH2 membranes

Ki [1] [nM]	Compound	Ki (Ki (nM)) [nM]
34.2	O=C(O)CCC(=O)N(C1CCC1)[C@@H]1c2ccccc2N(C(=O)c2cccc(OC(F)(F)F)c2)[C@@H]2CCC[C@@H]21 (single isomer, unassigned) [17DA, 4-[cyclobutyl[cis,cis-2,3,3a,4,9,9a-hexahydro-4-[3-(trifluoromethoxy)benzoyl]-1H-cyclopenta[b]quinolin-9-yl]amino]-4-oxobutanoic acid]	–
1080	CCN(C(=O)CCC(=O)O)C1c2ccccc2N(C(=O)OCc2cc(F)cc(F)c2)C2CCCC12 (single isomer, unassigned) [22A, 4-[(3,5-difluorophenyl)methyl] cis, cis-[(3-carboxy-1-oxopropyl)ethylamino]-1,2,3,3a,9,9a-hexahydro-4H-cyclopenta[b]quinoline-4-carboxylate]	–
1.5	O=C(O)CCC(=O)N(C1CC1)C1c2ccc(Cl)cc2N(C(=O)c2ccc(OC(F)(F)F)cc2)C2CCC21 (single isomer, unassigned) [27K, 4-[[cis, cis-5-chloro-1,2,2a,3,8,8a-hexahydro-3-[4-(trifluoromethoxy)benzoyl]cyclobuta[b]quinolin-8-yl]cyclopropylamino]-4-oxobutanoic acid]	–
638	O=C(O)COC(=O)N(C1CC1)C1c2ccccc2N(c2nnc(Cc3ccc(OC(F)(F)F)cc3)o2)C2CCCC21 (single isomer, unassigned) [38G, [[[cyclopropyl[cis,cis-2,3,3a,4,9,9a-hexahydro-4-[5-[[4-(trifluoromethoxy)phenyl]methyl]-1,3,4-oxadiazol-2-yl]-1H-cyclopenta[b]quinoline-9-yl]amino]carbonyl]oxy]acetic acid]	–
–	O=C(O)CCC(=O)N(C1CC1)[C@@H]1c2ccccc2N(C(=O)OCc2ccc(F)cc2)[C@@H]2CCC[C@@H]21 (single isomer, unassigned) [compound 22, 4-[(4-Fluorophenyl)methyl]cis,cis-[(3-carboxy-1-oxopropyl)cyclopropylamino]-1,2,3,3a,9,9a-hexahydro-4H-cyclopenta[b]quinoline-4-carboxylate]	5.1 to 20
6.9	Cc1ccc2c(c1)C(N(C(=O)CCC(=O)O)C1CC1)C1CCCC1N2C(=O)c1ccc(OC(F)(F)F)cc1 (single isomer, unassigned) [compound 51, 4-[Cyclopropyl[cis,cis-2,3,3a,4,9,9a-hexahydro-7-methyl-4-[4-(trifluoromethoxy)benzoyl]-1H-cyclopenta[b]quinolin-9-yl]amino]-4-oxobutanoic acid]	–
21.2	O=C(O)CCCN(C1CC1)C1c2ccccc2N(C(=O)OCc2ccccc2)C2CCCC21 (single isomer, unassigned) [compound 60, 4-(phenylmethyl) cis, cis-[(3-carboxypropyl)cyclopropylamino]-1,2,3,3a,9,9a-hexahydro-4H-cyclopenta[b]quinoline-4-carboxylate]	–
4.97	CCN(C(=O)CCC(=O)O)C1c2ccccc2N(C(=O)C2CC2c2ccccc2)C2CCCC12 (single isomer, unassigned) [compound 69, 4-[ethyl[cis, cis-2,3,3a,4,9,9a-hexahydro-4-[(2-phenyl-1-cyclopropyl)carbonyl]-1H-cyclopenta[b]quinolin-9-yl]amino]-4-oxobutanoic acid]	–
15.7	CCN(C(=O)CCC(=O)O)C1c2ccccc2N(C(=O)OCc2ccc(F)c(F)c2)C2CCCC12 (single isomer, unassigned) [compound 72, 4-[(3,4-difluorophenyl)methyl] cis, cis-[(3-carboxy-1-oxopropyl)ethylamino]-1,2,3,3a,9,9a-hexahydro-4H-cyclopenta[b]quinoline-4-carboxylate]	–

Compound	Ki [1] [nM]	Ki (Ki (nM)) [nM]
O=C(O)CCC(=O)N(C1CC1)C1c2cc(F)ccc2N(C(=O)c2ccc(OC(F)(F)F)cc2)C2CCCC21 (single isomer, unassigned) [compound 134, 4-[cyclopropyl[cis, cis-7-fluoro-2,3,3a,4,9,9a-hexahydro-4-[4-(trifluoromethoxy)benzoyl]-1H-cyclopenta[b]quinolin-9-yl]amino]-4-oxobutanoic acid]	236	–
O=C(O)CCC(=O)N(C1CC1)[C@H]1c2cc(F)ccc2N(C(=O)c2ccc(OC(F)(F)F)cc2)[C@H]2CCC[C@H]21 [compound 17, 4-(cyclopropyl((3aS,9R,9aR)-7-fluoro-4-(4-(trifluoromethoxy)benzoyl)-2,3,3a,4,9,9a-hexahydro-1H-cyclopenta[b]quinolin-9-yl)amino)-4-oxobutanoic acid]	5.1	–
